Data: US9637483B2, “Heterocyclic compound” (TAKEDA PHARMACEUTICAL COMPANY LIMITED, priority 2013, dated 2017)

Legend:
Type in all cases: biochemical
[1] = biological target: T1, JAK2 (Homo sapiens, UniProt O60674); assay: JAK2 enzyme inhibition test (LANCE method); conditions: 1 μM test compound; for inhibition at 1 µM: read-out: JAK2 enzyme inhibitory activity (%, 1 μM)
T1 construct: purchased Invitrogen
Summary of the method: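 Recombinant JAK2 (6 ng/mL solution) phosphorylated ULight-JAK1 peptide (300 nM solution) with ATP (45 μM solution) in pH 7.5 HEPES/MgCl2/DTT buffer for 1 hr at room temperature. After EDTA stop and europium anti-phosphotyrosine antibody for 1 hr, TR-FRET read at 665 nm; inhibition relative to enzyme-free wells as 100%.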

[2] = biological target: T2, JAK3 (Homo sapiens, UniProt P52333); assay: JAK3 enzyme inhibition test (LANCE method); conditions: 1 μM test compound; for inhibition at 1 µM: read-out: JAK3 enzyme inhibitory activity (%, 1 μM)
T2 construct: purchased Invitrogen
T2 sequence (P52333 1-1124): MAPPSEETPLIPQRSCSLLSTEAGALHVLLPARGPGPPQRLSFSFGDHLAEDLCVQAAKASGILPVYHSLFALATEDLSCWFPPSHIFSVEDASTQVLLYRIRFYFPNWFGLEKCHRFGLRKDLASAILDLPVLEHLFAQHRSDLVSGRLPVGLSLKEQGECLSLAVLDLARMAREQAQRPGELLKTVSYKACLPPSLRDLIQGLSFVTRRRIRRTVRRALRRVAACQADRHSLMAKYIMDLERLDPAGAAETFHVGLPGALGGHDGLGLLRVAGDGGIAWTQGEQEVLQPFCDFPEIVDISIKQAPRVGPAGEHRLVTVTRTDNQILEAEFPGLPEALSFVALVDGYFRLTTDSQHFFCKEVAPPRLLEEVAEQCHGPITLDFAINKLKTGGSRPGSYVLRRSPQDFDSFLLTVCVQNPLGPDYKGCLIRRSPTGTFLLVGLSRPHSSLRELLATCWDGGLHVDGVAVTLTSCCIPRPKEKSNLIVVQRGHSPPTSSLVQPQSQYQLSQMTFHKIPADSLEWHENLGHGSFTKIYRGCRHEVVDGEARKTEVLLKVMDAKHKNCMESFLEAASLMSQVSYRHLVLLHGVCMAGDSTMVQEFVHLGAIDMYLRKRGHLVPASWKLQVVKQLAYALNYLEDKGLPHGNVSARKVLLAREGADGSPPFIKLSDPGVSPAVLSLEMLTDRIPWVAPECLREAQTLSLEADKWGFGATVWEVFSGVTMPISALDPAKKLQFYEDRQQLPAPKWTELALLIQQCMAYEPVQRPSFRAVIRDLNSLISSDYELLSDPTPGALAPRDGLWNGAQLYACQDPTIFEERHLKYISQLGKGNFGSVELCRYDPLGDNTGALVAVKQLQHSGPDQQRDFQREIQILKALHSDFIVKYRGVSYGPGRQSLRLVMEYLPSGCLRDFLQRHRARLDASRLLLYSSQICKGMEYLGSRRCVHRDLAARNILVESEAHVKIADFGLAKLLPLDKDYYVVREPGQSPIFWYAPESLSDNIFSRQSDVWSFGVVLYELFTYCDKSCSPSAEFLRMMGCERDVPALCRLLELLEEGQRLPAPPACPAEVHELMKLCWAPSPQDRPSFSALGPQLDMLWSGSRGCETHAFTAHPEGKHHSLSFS
Summary of the method: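 Recombinant JAK3 (12 ng/mL solution) with ULight-JAK1 peptide (300 nM solution) and ATP (15 μM solution) in HEPES pH 7.5 buffer, 1 h at room temperature. EDTA stop with Eu-anti-phosphotyrosine antibody; TR-FRET at 665 nm. Inhibition relative to enzyme-free wells as 100%.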

[3] = biological target: T3, TYK2 (Homo sapiens, UniProt P29597); assay: TYK2 enzyme inhibition test (LANCE method); conditions: 1 μM test compound; for inhibition at 1 µM: read-out: TYK2 enzyme inhibitory activity (%, 1 μM)
T3 construct: purchased Invitrogen
T3 sequence (P29597 whole entry): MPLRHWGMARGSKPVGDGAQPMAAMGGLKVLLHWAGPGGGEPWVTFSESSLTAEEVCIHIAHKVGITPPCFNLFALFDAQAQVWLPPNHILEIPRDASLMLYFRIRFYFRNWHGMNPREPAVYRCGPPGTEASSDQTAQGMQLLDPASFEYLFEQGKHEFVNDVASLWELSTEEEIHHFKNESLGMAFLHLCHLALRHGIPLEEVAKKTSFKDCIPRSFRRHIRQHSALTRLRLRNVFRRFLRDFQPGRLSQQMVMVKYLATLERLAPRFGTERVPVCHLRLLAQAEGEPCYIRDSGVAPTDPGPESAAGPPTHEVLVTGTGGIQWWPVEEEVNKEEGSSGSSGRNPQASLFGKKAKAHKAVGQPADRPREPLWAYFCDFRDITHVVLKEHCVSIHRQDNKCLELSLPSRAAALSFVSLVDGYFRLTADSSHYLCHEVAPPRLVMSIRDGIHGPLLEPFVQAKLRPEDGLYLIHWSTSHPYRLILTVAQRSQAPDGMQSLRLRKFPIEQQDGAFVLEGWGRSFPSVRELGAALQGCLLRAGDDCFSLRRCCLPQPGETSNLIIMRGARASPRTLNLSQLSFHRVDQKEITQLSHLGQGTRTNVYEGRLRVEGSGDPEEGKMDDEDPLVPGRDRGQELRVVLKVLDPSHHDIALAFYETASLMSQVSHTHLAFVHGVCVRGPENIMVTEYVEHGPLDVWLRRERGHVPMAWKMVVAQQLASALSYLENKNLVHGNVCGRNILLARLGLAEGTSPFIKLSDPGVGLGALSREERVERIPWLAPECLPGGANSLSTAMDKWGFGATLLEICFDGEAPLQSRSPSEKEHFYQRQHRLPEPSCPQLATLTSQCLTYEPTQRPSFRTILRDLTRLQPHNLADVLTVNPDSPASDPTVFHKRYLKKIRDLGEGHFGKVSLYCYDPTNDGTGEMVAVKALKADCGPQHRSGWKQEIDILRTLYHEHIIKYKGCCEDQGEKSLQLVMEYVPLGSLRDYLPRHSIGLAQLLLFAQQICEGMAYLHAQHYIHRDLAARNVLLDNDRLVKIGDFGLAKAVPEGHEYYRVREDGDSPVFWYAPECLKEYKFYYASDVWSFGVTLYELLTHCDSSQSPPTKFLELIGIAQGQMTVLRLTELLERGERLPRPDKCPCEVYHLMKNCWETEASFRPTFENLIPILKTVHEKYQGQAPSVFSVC
Summary of the method: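 Recombinant TYK2 (375 ng/mL working solution) with ULight-JAK1 peptide (300 nM working solution) and ATP (30 μM working solution) in HEPES pH 7.5 buffer with MgCl2, EGTA, DTT, Tween20, BSA, reacted 1 h at RT. EDTA-stopped, Eu-anti-phosphotyrosine TR-FRET read at 665 nm; inhibition relative to enzyme-free wells as 100%.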

[4] = biological target: T4, JAK1 (Homo sapiens, UniProt P23458); assay: JAK1 enzyme inhibition test (LANCE method); conditions: 1 μM test compound; for inhibition at 1 µM: read-out: JAK1 enzyme inhibitory activity (%, 1 μM)
T4 construct: purchased Invitrogen
T4 sequence (P23458 whole entry): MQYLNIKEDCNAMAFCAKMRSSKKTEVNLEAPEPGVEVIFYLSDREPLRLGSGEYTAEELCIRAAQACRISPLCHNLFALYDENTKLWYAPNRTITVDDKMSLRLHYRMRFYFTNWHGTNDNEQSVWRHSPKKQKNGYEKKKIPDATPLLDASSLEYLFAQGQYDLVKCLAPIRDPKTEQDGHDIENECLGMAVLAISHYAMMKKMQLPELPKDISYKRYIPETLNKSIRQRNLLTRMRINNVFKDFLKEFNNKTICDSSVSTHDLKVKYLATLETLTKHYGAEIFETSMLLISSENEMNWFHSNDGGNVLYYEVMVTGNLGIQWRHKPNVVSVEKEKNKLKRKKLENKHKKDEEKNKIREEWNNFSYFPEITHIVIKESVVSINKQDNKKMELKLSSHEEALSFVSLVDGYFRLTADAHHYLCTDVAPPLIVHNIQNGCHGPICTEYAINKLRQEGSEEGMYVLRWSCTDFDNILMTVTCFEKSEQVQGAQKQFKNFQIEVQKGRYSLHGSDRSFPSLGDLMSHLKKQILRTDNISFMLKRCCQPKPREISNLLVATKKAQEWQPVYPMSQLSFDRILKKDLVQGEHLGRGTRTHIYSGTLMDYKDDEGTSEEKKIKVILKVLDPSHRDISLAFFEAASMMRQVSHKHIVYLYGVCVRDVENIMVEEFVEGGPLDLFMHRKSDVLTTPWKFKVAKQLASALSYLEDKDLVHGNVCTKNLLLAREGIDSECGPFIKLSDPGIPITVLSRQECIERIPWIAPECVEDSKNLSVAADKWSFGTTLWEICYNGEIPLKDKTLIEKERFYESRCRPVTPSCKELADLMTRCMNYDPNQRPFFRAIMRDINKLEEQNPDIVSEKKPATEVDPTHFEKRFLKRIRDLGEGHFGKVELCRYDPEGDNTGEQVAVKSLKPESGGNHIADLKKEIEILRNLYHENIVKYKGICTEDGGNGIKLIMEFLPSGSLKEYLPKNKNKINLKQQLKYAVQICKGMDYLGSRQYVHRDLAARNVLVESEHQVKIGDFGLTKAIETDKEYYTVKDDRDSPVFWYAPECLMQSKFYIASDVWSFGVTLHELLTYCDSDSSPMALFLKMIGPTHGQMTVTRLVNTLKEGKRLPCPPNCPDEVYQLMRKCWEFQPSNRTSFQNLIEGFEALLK
Summary of the method: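 TR-FRET (LANCE) with ULight-JAK1 peptide (300 nM working solution) and ATP (150 μM working solution) in HEPES pH 7.5, MgCl2, EGTA, DTT buffer; 1 h at room temperature. EDTA stop plus Eu-anti-phosphotyrosine antibody, 665 nm read after 1 h. Inhibition relative to enzyme-free wells as 100%.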

T1 sequence (O60674 whole entry): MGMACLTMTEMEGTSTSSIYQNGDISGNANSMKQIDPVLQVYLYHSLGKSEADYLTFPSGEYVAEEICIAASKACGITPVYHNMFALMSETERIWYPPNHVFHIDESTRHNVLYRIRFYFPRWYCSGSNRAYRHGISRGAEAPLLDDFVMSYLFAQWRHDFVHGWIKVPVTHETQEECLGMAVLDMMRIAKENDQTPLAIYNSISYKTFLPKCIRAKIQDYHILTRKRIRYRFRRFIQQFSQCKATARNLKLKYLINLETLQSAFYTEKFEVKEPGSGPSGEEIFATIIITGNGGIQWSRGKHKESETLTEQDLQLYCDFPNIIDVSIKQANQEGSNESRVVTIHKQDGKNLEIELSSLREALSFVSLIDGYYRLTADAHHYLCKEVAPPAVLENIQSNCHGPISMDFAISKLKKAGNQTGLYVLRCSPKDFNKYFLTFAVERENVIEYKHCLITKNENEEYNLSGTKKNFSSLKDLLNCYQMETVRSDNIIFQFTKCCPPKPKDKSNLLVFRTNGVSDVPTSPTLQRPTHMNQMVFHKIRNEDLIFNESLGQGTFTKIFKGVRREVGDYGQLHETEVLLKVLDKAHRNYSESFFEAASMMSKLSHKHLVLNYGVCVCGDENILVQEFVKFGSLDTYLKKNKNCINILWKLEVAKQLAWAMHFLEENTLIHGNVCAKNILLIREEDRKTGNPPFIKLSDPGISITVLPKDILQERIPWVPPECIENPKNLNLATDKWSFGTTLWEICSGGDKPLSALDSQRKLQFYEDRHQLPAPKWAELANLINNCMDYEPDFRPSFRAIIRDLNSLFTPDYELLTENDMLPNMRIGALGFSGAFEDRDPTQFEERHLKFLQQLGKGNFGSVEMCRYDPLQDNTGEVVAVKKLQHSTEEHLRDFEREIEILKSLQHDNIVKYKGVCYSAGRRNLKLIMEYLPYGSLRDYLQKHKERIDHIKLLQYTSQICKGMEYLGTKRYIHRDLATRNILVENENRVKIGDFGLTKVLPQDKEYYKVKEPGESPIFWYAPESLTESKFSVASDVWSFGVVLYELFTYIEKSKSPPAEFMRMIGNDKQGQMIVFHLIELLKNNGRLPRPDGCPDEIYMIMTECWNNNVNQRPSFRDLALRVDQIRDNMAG

inhibition at 1 µM [1] | inhibition at 1 µM [2] | inhibition at 1 µM [3] | inhibition at 1 µM [4] | Compound | also measured
100% | 99% | 99% |  | Cn1nc(-c2cn(C3CCCC3(C)C)c(=O)c3c(N)n[nH]c23)cc1CN1CCS(=O)(=O)CC1 (stereo not drawn) [Example 74, 3-amino-5-(2,2-dimethylcyclopentyl)-7-(5-((1,1-dioxidothiomorpholin-4-yl)methyl)-1-methyl-1H-pyrazol-3-yl)-1,5-dihydro-4H-pyrazolo[4,3-c]pyridin-4-one] | JAK1 enzyme inhibitory activity (%, 1 μM) ([4]; 1 µM): 98%
 |  |  |  | Cn1nc(-c2cn(C3CCCC3(C)C)c(=O)c3c(N)n[nH]c23)cc1CN1CCS(=O)(=O)CC1 (stereo not drawn) [Example 75, 3-amino-5-(2,2-dimethylcyclopentyl)-7-(5-((1,1-dioxidothiomorpholin-4-yl)methyl)-1-methyl-1H-pyrazol-3-yl)-1,5-dihydro-4H-pyrazolo[4,3-c]pyridin-4-one] | JAK2 enzyme inhibitory activity (%, 1 μM) ([1]; 1 µM): 87%; JAK3 enzyme inhibitory activity (%, 1 μM) ([2]; 1 µM): 93%; TYK2 enzyme inhibitory activity (%, 1 μM) ([3]; 1 µM): 92%; JAK1 enzyme inhibitory activity (%, 1 μM) ([4]; 1 µM): 66%
99% | 100% | 100% | 99% | Cn1nc(-c2cn(C3CCCC3(C)C)c(=O)c3c(N)n[nH]c23)cc1N1CCOCC1 (stereo not drawn) [Example 76, 3-amino-5-(2,2-dimethylcyclopentyl)-7-(1-methyl-5-(morpholin-4-yl)-1H-pyrazol-3-yl)-1,5-dihydro-4H-pyrazolo[4,3-c]pyridin-4-one] | 
 |  |  |  | Cn1nc(-c2cn(C3CCCC3(C)C)c(=O)c3c(N)n[nH]c23)cc1N1CCOCC1 (stereo not drawn) [Example 77, 3-amino-5-(2,2-dimethylcyclopentyl)-7-(1-methyl-5-(morpholin-4-yl)-1H-pyrazol-3-yl)-1,5-dihydro-4H-pyrazolo[4,3-c]pyridin-4-one] | JAK2 enzyme inhibitory activity (%, 1 μM) ([1]; 1 µM): 84%; JAK3 enzyme inhibitory activity (%, 1 μM) ([2]; 1 µM): 90%; TYK2 enzyme inhibitory activity (%, 1 μM) ([3]; 1 µM): 96%; JAK1 enzyme inhibitory activity (%, 1 μM) ([4]; 1 µM): 79%
99% | 100% | 99% | 98% | Cn1nc(-c2cn(C(C3CC3)C3CC3)c(=O)c3c(N)n[nH]c23)cc1N1CCS(=O)(=O)CC1 [Example 78, 3-amino-5-(dicyclopropylmethyl)-7-(5-(1,1-dioxidothiomorpholin-4-yl)-1-methyl-1H-pyrazol-3-yl)-1,5-dihydro-4H-pyrazolo[4,3-c]pyridin-4-one] | 
99% | 100% | 99% | 99% | Cn1nc(-c2cn(C(C3CC3)C3CC3)c(=O)c3c(N)n[nH]c23)cc1N1CCOCC1 [Example 79, 3-amino-5-(dicyclopropylmethyl)-7-(1-methyl-5-(morpholin-4-yl)-1H-pyrazol-3-yl)-1,5-dihydro-4H-pyrazolo[4,3-c]pyridin-4-one] | 
91% | 98% | 99% | 89% | CC(C)C(C(F)F)n1cc(-c2cc(N3CCOCC3)n(C)n2)c2[nH]nc(N)c2c1=O (stereo not drawn) [Example 80, 3-amino-5-(1,1-difluoro-3-methylbutan-2-yl)-7-(1-methyl-5-(morpholin-4-yl)-1H-pyrazol-3-yl)-1,5-dihydro-4H-pyrazolo[4,3-c]pyridin-4-one] | 
100% | 100% | 99% | 99% | CC(n1cc(-c2cc(N3CCOCC3)n(C)n2)c2[nH]nc(N)c2c1=O)C1(C)CC1 (stereo not drawn) [Example 81, 3-amino-5-(1-(1-methylcyclopropyl)ethyl)-7-(1-methyl-5-(morpholin-4-yl)-1H-pyrazol-3-yl)-1,5-dihydro-4H-pyrazolo[4,3-c]pyridin-4-one] | 
87% | 97% | 99% | 89% | CC(C)C(n1cc(-c2cc(N3CCOCC3)n(C)n2)c2[nH]nc(N)c2c1=O)C(F)(F)F (stereo not drawn) [Example 82, 3-amino-7-(1-methyl-5-(morpholin-4-yl)-1H-pyrazol-3-yl)-5-(1,1,1-trifluoro-3-methylbutan-2-yl)-1,5-dihydro-4H-pyrazolo[4,3-c]pyridin-4-one] | 
100% | 100% | 100% | 99% | Cn1nc(-c2cn(C(C3CC3)C(F)(F)F)c(=O)c3c(N)n[nH]c23)cc1N1CCOCC1 (stereo not drawn) [Example 83, 3-amino-5-(1-cyclopropyl-2,2,2-trifluoroethyl)-7-(1-methyl-5-(morpholin-4-yl)-1H-pyrazol-3-yl)-1,5-dihydro-4H-pyrazolo[4,3-c]pyridin-4-one] | 
87% | 97% | 83% | 84% | CCOC(=O)C(C(C)C)n1cc(-c2cc(N3CCOCC3)n(C)n2)c2[nH]nc(N)c2c1=O (stereo not drawn) [Example 84, ethyl 2-(3-amino-7-(1-methyl-5-(morpholin-4-yl)-1H-pyrazol-3-yl)-4-oxo-1,4-dihydro-5H-pyrazolo[4,3-c]pyridin-5-yl)-3-methylbutanoate] | 
86% | 89% | 89% | 68% | CC(C)C(C(N)=O)n1cc(-c2cc(N3CCOCC3)n(C)n2)c2[nH]nc(N)c2c1=O (stereo not drawn) [Example 85, 2-(3-amino-7-(1-methyl-5-(morpholin-4-yl)-1H-pyrazol-3-yl)-4-oxo-1,4-dihydro-5H-pyrazolo[4,3-c]pyridin-5-yl)-3-methylbutanamide] | 
 |  |  |  | CC(C)[C@H](C)n1cc(-c2cc(C(C)(C)O)n(C)n2)c2[nH]nc(N)c2c1=O.Cl [Example 86, 3-amino-7-(5-(2-hydroxypropan-2-yl)-1-methyl-1H-pyrazol-3-yl)-5-((2S)-3-methylbutan-2-yl)-1,5-dihydro-4H-pyrazolo[4,3-c]pyridin-4-one hydrochloride] | JAK2 enzyme inhibitory activity (%, 1 μM) [1]: 98%; JAK3 enzyme inhibitory activity (%, 1 μM) [2]: 99%; TYK2 enzyme inhibitory activity (%, 1 μM) [3]: 100%; JAK1 enzyme inhibitory activity (%, 1 μM) [4]: 98%
100% | 99% | 99% | 99% | Cn1nc(-c2cn(C(C3CC3)C3CC3)c(=O)c3c(N)n[nH]c23)cc1N1CCS(=O)(=O)C(C)(C)C1 [Example 88, 3-amino-5-(dicyclopropylmethyl)-7-(5-(2,2-dimethyl-1,1-dioxidothiomorpholin-4-yl)-1-methyl-1H-pyrazol-3-yl)-1,5-dihydro-4H-pyrazolo[4,3-c]pyridin-4-one] | 
99% | 99% | 100% | 97% | COC1(c2cc(-c3cn(C(C4CC4)C4CC4)c(=O)c4c(N)n[nH]c34)nn2C)CN(C(=O)C(C)C)C1 [Example 89, 3-amino-5-(dicyclopropylmethyl)-7-(5-(1-isobutyryl-3-methoxyazetidin-3-yl)-1-methyl-1H-pyrazol-3-yl)-1,5-dihydro-4H-pyrazolo[4,3-c]pyridin-4-one] | 
